From US12336981B2, “Compounds and compositions for the inhibition of NAMPT” (Valo Health, Inc., priority 2010, dated 2025) come the findings set out here.

For one test, the target named is T1, NAMPT (Homo sapiens, UniProt P43490).
T1 construct: His tag; host or cells: E. coli
As to the kind of experiment: Biochemical inhibition assay: NAMPT enzymatic reaction, NMN quantified by mass spectrometry. Conditions: read-out: Biochem IC50. The gist of the method:
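Inhibition of E. coli-expressed His-tagged human NAMPT, measured as NMN formation by mass spectrometry after a 30 min room-temperature reaction containing 1 μM NAM, 100 μM PRPP and 2.5 mM ATP.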

The next test relates to A2780 cells. As to the kind of experiment: In-vitro cell proliferation assay (SRB), A2780 cells. Conditions: Homo sapiens, A2780, 72 h, A2780 cells, 72 hours, read-out: A2780 IC50. Format: cell-based. The gist of the method: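 Proliferation is assessed by sulforhodamine B staining following a 72-hour incubation with compound dilutions containing 0.1% DMSO.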

Read-outs that look alike come from different tables or passages of the source.

A word on the IC50: it is the concentration that gives 50% inhibition.

T1 sequence (P43490 whole entry): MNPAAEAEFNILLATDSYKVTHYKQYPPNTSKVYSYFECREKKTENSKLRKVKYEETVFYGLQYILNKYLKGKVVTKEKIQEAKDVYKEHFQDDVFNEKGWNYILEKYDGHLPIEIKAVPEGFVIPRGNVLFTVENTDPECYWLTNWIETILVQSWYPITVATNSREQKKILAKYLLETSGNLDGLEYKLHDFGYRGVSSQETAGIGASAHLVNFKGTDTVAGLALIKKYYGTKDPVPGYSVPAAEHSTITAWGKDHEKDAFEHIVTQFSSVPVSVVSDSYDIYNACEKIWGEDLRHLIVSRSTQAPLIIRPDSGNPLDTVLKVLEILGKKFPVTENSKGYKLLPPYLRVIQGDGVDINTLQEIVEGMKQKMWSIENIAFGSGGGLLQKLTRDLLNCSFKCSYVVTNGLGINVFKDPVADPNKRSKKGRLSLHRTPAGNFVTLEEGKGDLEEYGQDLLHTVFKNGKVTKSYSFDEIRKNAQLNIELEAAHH

On to `Cc1ccccc1S(=O)(=O)c1ccc(CNC(=O)c2cc3ccncc3o2)cc1` [N-({4-[(2-methylbenzene)sulfonyl]phenyl}methyl)furo[2,3-c]pyridine-2-carboxamide], for which the IC50 on NAMPT (NAMPT enzymatic reaction) was 15.2 nM; in the test with A2780 cells (SRB), 43.3 nM.
The like results for `COc1ccc(S(=O)(=O)c2ccc(CNC(=O)c3cc4ccncc4o3)cc2)cc1Cl` [N-({4-[(3-chloro-4-methoxybenzene)sulfonyl]phenyl}methyl)furo[2,3-c]pyridine-2-carboxamide] were, in that order, 7.3 nM and 1.8 nM.
For the compound `Cc1ccc(S(=O)(=O)c2ccc(CNC(=O)c3ccc4nccn4c3)cc2)cc1F` [N-({4-[(3-fluoro-4-methylbenzene)sulfonyl]phenyl}methyl)imidazo[1,2-a]pyridine-6-carboxamide], the results for the IC50 at NAMPT (NAMPT enzymatic reaction) and in the test on A2780 cells (SRB) were 13.3 nM and 3.78 nM, respectively.
On to `Cc1ccc(F)c(S(=O)(=O)c2ccc(CNC(=O)c3cc4cnccc4[nH]3)cc2)c1` [N-({4-[(2-fluoro-5-methylbenzene)sulfonyl]phenyl}methyl)-1H-pyrrolo[3,2-c]pyridine-2-carboxamide], for which the half-inhibitory concentration (IC50) at NAMPT (NAMPT enzymatic reaction) worked out at 25 nM; with A2780 cells (SRB assay) it was 24 nM.
As to `O=C(NCc1ccc(S(=O)(=O)c2ccc(N3CCOCC3)cc2)cc1)c1cc2ccncc2s1`, the IC50 on NAMPT (NAMPT enzymatic assay) is 1.6 nM; in the test with A2780 cells (SRB), 1.5 nM.
`O=C(NCc1ccc(S(=O)(=O)c2cnc(N3CCCC3)s2)cc1)c1cnc2nccn2c1` [N-({4-[2-(pyrrolidin-1-yl)-1,3-thiazole-5-sulfonyl]phenyl}methyl)imidazo[1,2-a]pyrimidine-6-carboxamide]: the IC50 at NAMPT (NAMPT enzymatic assay) stood at 2.9 nM; with A2780 cells (SRB), 0.9 nM.
Regarding `CCc1ccc(S(=O)(=O)c2ccc(CNC(=O)c3cnc4nccn4c3)cc2)cc1`, the 50% inhibitory concentration (IC50) on NAMPT (NAMPT enzymatic reaction) is 1.2 nM; in the test on A2780 cells (SRB), 6.2 nM.
On the same counts, the results for `COc1ccc(S(=O)(=O)c2ccc(CNC(=O)c3cnc4nccn4c3)cc2)cc1` are 2.7 nM and 20.7 nM.
Regarding `COc1ccc(S(=O)(=O)c2ccc(CNC(=O)c3cc4ccncc4o3)cc2)c(C(F)(F)F)c1`, the IC50 at NAMPT (NAMPT enzymatic assay) is 14.6 nM; with A2780 cells (SRB) it was 15.2 nM.
On the same counts, the results for `O=C(NCc1ccc(S(=O)(=O)c2cc(Cl)ccc2OCC(F)(F)F)cc1)c1ccc2nccn2c1` are 1 nM and 0.3 nM.
On to `CCOc1ccccc1S(=O)(=O)c1ccc(CNC(=O)c2cc3ccncc3o2)cc1` [N-({4-[(2-ethoxybenzene)sulfonyl]phenyl}methyl)furo[2,3-c]pyridine-2-carboxamide], for which the values for the IC50 at NAMPT (NAMPT enzymatic reaction) and with A2780 cells (SRB) were 65.9 nM and 6 nM, respectively.
The like results for `CCCOc1cccc(S(=O)(=O)c2ccc(CNC(=O)c3cc4ccncc4s3)cc2)c1` were, in that order, 4 nM and 12.2 nM.
Regarding `Cc1ccc(F)cc1S(=O)(=O)c1ccc(CNC(=O)c2cc3cnccc3[nH]2)cc1` [N-({4-[(5-fluoro-2-methylbenzene)sulfonyl]phenyl}methyl)-1H-pyrrolo[3,2-c]pyridine-2-carboxamide], the results for the IC50 on NAMPT (NAMPT enzymatic reaction) and in the test on A2780 cells (SRB assay) were 11 nM and 7 nM, respectively.
Consider `O=C(NCc1ccc(S(=O)(=O)c2cccc(CN3CCCCC3)c2)cc1)c1cnc2nccn2c1`, for which the IC50 on NAMPT (NAMPT enzymatic assay) was 1.9 nM; with A2780 cells (SRB), 30.6 nM.
`O=C(NCc1ccc(S(=O)(=O)c2cccc3c2OCC3)cc1)c1ccc2nccn2c1` [N-{[4-(2,3-dihydro-1-benzofuran-7-sulfonyl)phenyl]methyl}imidazo[1,2-a]pyridine-6-carboxamide]: the half-inhibitory concentration (IC50) at NAMPT (NAMPT enzymatic assay) came out at 12.5 nM; in the test with A2780 cells (SRB) it was 6.4 nM.
The like results for `O=C(NCc1ccc(S(=O)(=O)c2cc(F)ccc2CO)cc1)c1cnc2[nH]ncc2c1` [N-[(4-{[5-fluoro-2-(hydroxymethyl)benzene]sulfonyl}phenyl)methyl]-1H-pyrazolo[3,4-b]pyridine-5-carboxamide] were, in that order, 109 nM and 100 to 1000 nM.
On to `Cc1ccc(S(=O)(=O)c2ccc(CNC(=O)c3cc4ccncc4o3)cc2)c(F)c1`, for which the concentration for half-maximal inhibition (IC50) on NAMPT (NAMPT enzymatic reaction) came to 12.3 nM; in the test on A2780 cells (SRB), 25.3 nM.
For `CN1CCN(c2ccc(S(=O)(=O)c3ccc(CNC(=O)c4cc5cnccc5[nH]4)cc3)cc2)CC1`, the values for the IC50 at NAMPT (NAMPT enzymatic assay) and in the test on A2780 cells (SRB) were 3 nM and 0.8 nM, respectively.
For the compound `O=C(NCc1ccc(S(=O)(=O)c2ccccc2Oc2ccccc2)cc1)c1cc2cnccc2[nH]1` [N-({4-[(2-phenoxybenzene)sulfonyl]phenyl}methyl)-1H-pyrrolo[3,2-c]pyridine-2-carboxamide], the half-maximal inhibitory concentration (IC50) amounted to 11 nM on NAMPT (NAMPT enzymatic reaction) and 7 nM with A2780 cells (SRB assay).
Regarding `O=C(NCc1ccc(S(=O)(=O)c2cccc(F)c2F)cc1)c1cnc2[nH]ncc2c1`, the results for the half-inhibitory concentration (IC50) on NAMPT (NAMPT enzymatic reaction) and with A2780 cells (SRB) were 82 nM and 279 nM, respectively.
As to `O=C(NCc1ccc(S(=O)(=O)c2ccc(F)cc2C(F)(F)F)cc1)c1cnc2nccn2c1`, the IC50 at NAMPT (NAMPT enzymatic assay) is 18.7 nM; with A2780 cells (SRB) it was 100 to 1000 nM.
As to `Cc1cccc(C)c1S(=O)(=O)c1ccc(CNC(=O)c2cc3ccncc3o2)cc1`, the figures for the 50% inhibitory concentration (IC50) on NAMPT (NAMPT enzymatic reaction) and in the test on A2780 cells (SRB) were 32.3 nM and 100 to 1000 nM, respectively.
In the case of `CN(C)CCc1ccc(S(=O)(=O)c2ccc(CNC(=O)c3ccc4nccn4c3)cc2)cc1`, the IC50 on NAMPT (NAMPT enzymatic assay) was 2.1 nM; in the test on A2780 cells (SRB) it was 0.8 nM.
In the case of `O=C(NCc1ccc(S(=O)(=O)c2cccc3c2Oc2ccccc2S3)cc1)c1ccc2nccn2c1` [N-{[4-(phenoxathiine-4-sulfonyl)phenyl]methyl}imidazo[1,2-a]pyridine-6-carboxamide], the values for the IC50 at NAMPT (NAMPT enzymatic assay) and in the test on A2780 cells (SRB) were 2.15 nM and 2.18 nM, respectively.
On to `O=C(NCc1ccc(S(=O)(=O)c2cncc(F)c2)cc1)c1cc2ccncc2s1` [N-{[4-(5-fluoropyridine-3-sulfonyl)phenyl]methyl}thieno[2,3-c]pyridine-2-carboxamide], for which the IC50 at NAMPT (NAMPT enzymatic assay) came out at 9.7 nM; in the test with A2780 cells (SRB), 6.4 nM.
The like results for `Cc1nc(S(=O)(=O)c2ccc(CNC(=O)c3cnc4[nH]ncc4c3)cc2)cs1` [N-{[4-(2-methyl-1,3-thiazole-4-sulfonyl)phenyl]methyl}-1H-pyrazolo[3,4-b]pyridine-5-carboxamide] were, in that order, 82.8 nM and 20.7 nM.
With `Cc1ccc(S(=O)(=O)c2ccc(CNC(=O)c3ccc4nccn4c3)cc2)c(F)c1` [N-({4-[(2-fluoro-4-methylbenzene)sulfonyl]phenyl}methyl)imidazo[1,2-a]pyridine-6-carboxamide], the figures for the 50% inhibitory concentration (IC50) at NAMPT (NAMPT enzymatic reaction) and in the test on A2780 cells (SRB) were 21.4 nM and 24.7 nM, respectively.
For `COc1c(C(F)(F)F)cccc1S(=O)(=O)c1ccc(CNC(=O)c2cc3ccncc3s2)cc1`, the figures for the IC50 on NAMPT (NAMPT enzymatic assay) and with A2780 cells (SRB) were 9.4 nM and 12.8 nM, respectively.
Take `O=C(NCc1ccc(S(=O)(=O)c2ccccc2Oc2ccccc2)cc1)c1cnc2nccn2c1`: the half-maximal inhibitory concentration (IC50) on NAMPT (NAMPT enzymatic reaction) is 8.5 nM; in the test on A2780 cells (SRB) it was 100 to 1000 nM.
On to `COc1ccc(C(C)=O)cc1S(=O)(=O)c1ccc(CNC(=O)c2cnc3nccn3c2)cc1`, for which the 50% inhibitory concentration (IC50) at NAMPT (NAMPT enzymatic reaction) came out at 17.2 nM; in the test on A2780 cells (SRB) it was 54.8 nM.
On the same counts, the results for `COc1ccc(OC)c(S(=O)(=O)c2ccc(CNC(=O)c3cnc4[nH]ncc4c3)cc2)c1OC` [N-({4-[(2,3,6-trimethoxybenzene)sulfonyl]phenyl}methyl)-1H-pyrazolo[3,4-b]pyridine-5-carboxamide] are 79.7 nM and 66.3 nM.
The like results for `Cc1ccc(C)c(S(=O)(=O)c2ccc(CNC(=O)c3ccc4nccn4c3)cc2)c1` [N-({4-[(2,5-dimethylbenzene)sulfonyl]phenyl}methyl)imidazo[1,2-a]pyridine-6-carboxamide] were, in that order, 29.3 nM and 15.4 nM.
For the compound `CC(C)Oc1cccc(S(=O)(=O)c2ccc(CNC(=O)c3cnc4nccn4c3)cc2)c1F` [N-[(4-{[2-fluoro-3-(propan-2-yloxy)benzene]sulfonyl}phenyl)methyl]imidazo[1,2-a]pyrimidine-6-carboxamide], the IC50 at NAMPT (NAMPT enzymatic assay) stood at 1.8 nM; in the test on A2780 cells (SRB), 7 nM.
In the case of `COc1c(C(F)(F)F)cccc1S(=O)(=O)c1ccc(CNC(=O)c2ccc3nccn3c2)cc1`, the results for the half-maximal inhibitory concentration (IC50) at NAMPT (NAMPT enzymatic assay) and with A2780 cells (SRB) were 21.9 nM and 14.8 nM, respectively.
On the same counts, the results for `CC(C)COc1ccc(S(=O)(=O)c2ccc(CNC(=O)c3cc4ccncc4s3)cc2)cc1` are 4 nM and 10.3 nM.
The like results for `O=C(NCc1ccc(S(=O)(=O)c2cc(F)cc(C(F)(F)F)c2)cc1)c1cnc2nccn2c1` were, in that order, 5.9 nM and 1.1 nM.
The like results for `Cn1ncc2c(S(=O)(=O)c3ccc(CNC(=O)c4ccc5ncsc5c4)cc3)cccc21` [N-{[4-(1-methyl-1H-indazole-4-sulfonyl)phenyl]methyl}-1,3-benzothiazole-6-carboxamide] were, in that order, 9.8 nM and 1000 to 10000 nM.
Consider `O=C(NCc1ccc(S(=O)(=O)c2ccc(OCC(F)(F)F)c(F)c2)cc1)c1ccc2nccn2c1`, for which the results for the half-maximal inhibitory concentration (IC50) at NAMPT (NAMPT enzymatic assay) and with A2780 cells (SRB) were 15 nM and 8 nM, respectively.
Take `N#Cc1cccc(S(=O)(=O)c2ccc(CNC(=O)c3cc4ccncc4s3)cc2)c1`: the half-inhibitory concentration (IC50) at NAMPT (NAMPT enzymatic reaction) worked out at 3.5 nM; in the test on A2780 cells (SRB) it was 5.6 nM.
On to `CN(C)CCc1ccc(S(=O)(=O)c2ccc(CNC(=O)c3cnc4nccn4c3)cc2)cc1`, for which the half-inhibitory concentration (IC50) was 2 nM at NAMPT (NAMPT enzymatic assay) and 18.1 nM in the test with A2780 cells (SRB).
`O=C(NCc1ccc(S(=O)(=O)c2cccc3c2OCO3)cc1)c1cnc2[nH]ncc2c1` [N-{[4-(2H-1,3-benzodioxole-4-sulfonyl)phenyl]methyl}-1H-pyrazolo[3,4-b]pyridine-5-carboxamide]: the half-inhibitory concentration (IC50) at NAMPT (NAMPT enzymatic assay) worked out at 47 nM; with A2780 cells (SRB), 88.4 nM.
`CCOc1cc(Cl)ccc1S(=O)(=O)c1ccc(CNC(=O)c2ccc3nccn3c2)cc1`: the IC50 on NAMPT (NAMPT enzymatic reaction) worked out at 4.1 nM; in the test with A2780 cells (SRB), 0.7 nM.
Regarding `CN(C)c1ccc(S(=O)(=O)c2ccc(CNC(=O)c3cc4ccncc4s3)cc2)cn1` [N-({4-[6-(dimethylamino)pyridine-3-sulfonyl]phenyl}methyl)thieno[2,3-c]pyridine-2-carboxamide], the values for the IC50 at NAMPT (NAMPT enzymatic assay) and in the test with A2780 cells (SRB) were 1 nM and 0.6 nM, respectively.
